Results on five compounds are retold here after ChEMBL document CHEMBL1133253, “Improved antibacterial activities of coumarin antibiotics bearing 5',5'-dialkylnoviose: biological activity of RU79115” (Bioorg Med Chem Lett, 2000).

Assay [1] has as its system Enterococcus faecium. In words: Tested for in vitro antibacterial activity against Enterococcus faecium 02D31P2 vancomycin teicoplanin erythromycin resistance phenotype. The assay is classed as functional.
In assay [2] the test system is Staphylococcus aureus. In words: IC50 was determined for gyrase B of Staphylococcus aureus against novobiocin (0.5 mg/mL) as reference; IC50nov/IC50comp.
In assay [3] the test system is Staphylococcus aureus. In words: Tested for in vitro antibacterial activity against Staphylococcus aureus 011 HT3 phenotype. The assay is classed as functional.
In assay [4] the test system is Streptococcus pyogenes. In words: Tested for in vitro antibacterial activity against Streptococcus pyogenes O2A1UC1 phenotype. The assay is classed as functional.
In assay [5] the test system is Staphylococcus aureus. In words: Tested for in vitro antibacterial activity against Staphylococcus aureus 011 HT1 novobiocin resistance phenotype. The assay is classed as functional.
Assay [6] has as its system Staphylococcus epidermidis. In words: Tested for in vitro antibacterial activity against Staphylococcus epidermidis 012GO42 oxacillin resistance phenotype. The assay is classed as functional.
The subject of assay [7] is Staphylococcus aureus. In words: Tested for in vitro antibacterial activity against Staphylococcus aureus 011 GO64 ofloxacin oxacillin erythromycin resistance phenotype. The format is functional.

≈ marks a conversion by molar mass, not a printed value.

Usually MIC stands for the least concentration at which growth counts as inhibited.

For the compound `CO[C@@H]1[C@@H](OC(=O)c2ccc(C)[nH]2)[C@@H](O)[C@H](Oc2ccc3c(O)c(NC(=O)c4ccc(O)c(CC=C(C)C)c4)c(=O)oc3c2Cl)OC1(C)C` [CHLOROBIOCIN], the minimum inhibitory concentration (MIC) in assay [1] was under 0.04 µg/mL; in assay [3], under 0.04 µg/mL; in assay [4], under 0.04 µg/mL; in assay [5] it was 0.6 µg/mL (≈ 0.861 µM). Further, the Ratio in assay [2] came to 1.7.

For `C#CCONC(=O)O[C@H]1[C@@H](O)[C@H](Oc2ccc3c(=O)c(/C(C)=N/OC)c(O)oc3c2C)OC(C)(C)[C@@H]1OC`, the minimum inhibitory concentration (MIC) in assay [1] came out at 2.5 µg/mL (≈ 4.68 µM); in assay [6], 0.08 µg/mL (≈ 0.15 µM); in assay [3], 0.16 µg/mL (≈ 0.299 µM); in assay [7], 0.16 µg/mL (≈ 0.299 µM); in assay [4], 0.6 µg/mL (≈ 1.12 µM); in assay [5], 5 µg/mL (≈ 9.35 µM). Further, the Ratio in assay [2] worked out at 12.5.

Turning to `CO[C@@H]1[C@@H](OC(N)=O)[C@@H](O)[C@H](Oc2ccc3c(O)c(NC(=O)c4ccc(O)c(CC=C(C)C)c4)c(=O)oc3c2C)OC1(C)C` [NOVOBIOCIN], the MIC in assay [1] was 0.6 µg/mL (≈ 0.979 µM); in assay [6], under 0.04 µg/mL; in assay [3] it was under 0.04 µg/mL; in assay [4], 0.3 µg/mL (≈ 0.49 µM); in assay [5], 10 µg/mL (≈ 16.3 µM). Also, the Ratio in assay [2] was 1.

For `C#CCONC(=O)O[C@H]1[C@@H](O)[C@H](Oc2ccc3c(=O)c(/C(C)=N/OC)c(O)oc3c2C)O[C@@](C)(C=C)[C@@H]1OC`, the minimum inhibitory concentration (MIC) in assay [1] was 1.2 µg/mL (≈ 2.2 µM); in assay [6], 0.15 µg/mL (≈ 0.274 µM); in assay [3] it was under 0.04 µg/mL; in assay [7], 0.3 µg/mL (≈ 0.549 µM); in assay [4], 1.2 µg/mL (≈ 2.2 µM); in assay [5], 2.5 µg/mL (≈ 4.57 µM). For the same compound, the Ratio in assay [2] came out at 2.6.

Regarding `C#CCONC(=O)O[C@H]1[C@@H](O)[C@H](Oc2ccc3c(O)c(/C(C)=N/OC)c(=O)oc3c2C)O[C@@H](CC)[C@@H]1OC`, the MIC in assay [1] was found to be 40 µg/mL (≈ 74.8 µM); in assay [6] it was 0.3 µg/mL (≈ 0.561 µM); in assay [3] it was 0.3 µg/mL (≈ 0.561 µM); in assay [7], 0.6 µg/mL (≈ 1.12 µM); in assay [4], 2.5 µg/mL (≈ 4.68 µM); in assay [5] it was 20 µg/mL (≈ 37.4 µM). Further, in assay [2], the Ratio worked out at 2.6.
